Laboratory results as given in US9527867B2, “Antibacterial biaromatic derivatives” (Actelion Pharmaceuticals Ltd., priority 2013, dated 2016).
≈ marks a conversion by molar mass, not a printed value.

How the values were obtained:
Assay in all cases: Bacterial growth minimal inhibitory concentration (broth microdilution, CLSI M7-A7)
Assay type in all cases: cell-based
[1] = system: Moraxella catarrhalis A894; conditions: quinolone-sensitive strain; for MIC: Moraxella catarrhalis, A894, cation-adjusted Mueller-Hinton Broth
Procedure, shortened: (§1)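 Broth microdilution after CLSI M7-A7 in cation-adjusted Mueller-Hinton medium gave MIC values in mg/L.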

[2] = system: Acinetobacter baumannii T6474; conditions: multiply-resistant strain (in particular quinolone-resistant); for MIC: Acinetobacter baumannii, T6474, cation-adjusted Mueller-Hinton Broth
Procedure, shortened: as §1

[3] = system: Enterococcus faecium A949; conditions: multiply-resistant strain (in particular quinolone-resistant); for MIC: Enterococcus faecium, A949, cation-adjusted Mueller-Hinton Broth, read-out: MIC for E. faecium A949
Procedure, shortened: as §1

[4] = system: Staphylococcus aureus A798; conditions: multiply-resistant strain (in particular quinolone-resistant); for MIC: Staphylococcus aureus, A798, cation-adjusted Mueller-Hinton Broth, read-out: MIC for S. aureus A798
Procedure, shortened: as §1

[5] = system: Staphylococcus aureus ATCC29213; conditions: methicillin-sensitive and quinolone-sensitive strain; for MIC: Staphylococcus aureus, ATCC29213, cation-adjusted Mueller-Hinton Broth, read-out: MIC for S. aureus ATCC29213
Procedure, shortened: as §1

[6] = cation-adjusted Mueller-Hinton Broth

MIC [1] [µg/mL] | MIC [2] [µg/mL] | MIC [3] [µg/mL] | MIC [4] [µg/mL] | MIC [5] [µg/mL] | MIC for M. catarrhalis A894 [1, 6] | MIC for A. baumannii T6474 [2, 6] [µg/mL] | MIC for E. faecium A949 [3, 6] [µg/mL] | MIC for S. aureus A798 [4, 6] | MIC for S. aureus ATCC29213 [5, 6] | SMILES
≤ 0.016 | 0.063 (≈ 0.129 µM) | 0.5 (≈ 1.03 µM) | ≤ 0.016 | 0.031 (≈ 0.0637 µM) |  |  |  |  |  | N#Cc1cccc(-c2cccc(CNCC[C@H]3CN(c4ccc5c(n4)NC(=O)CO5)C(=O)O3)c2O)n1 [Example 92, 6-[2-hydroxy-3-({2-[(S)-2-oxo-3-(3-oxo-3,4-dihydro-2H-pyrido[3,2-b][1,4]oxazin-6-yl)-oxazolidin-5-yl]-ethylamino}-methyl)-phenyl]-pyridine-2-carbonitrile]
≤ 0.016 | 0.063 (≈ 0.128 µM) | 0.25 (≈ 0.509 µM) | ≤ 0.016 | ≤ 0.016 |  |  |  |  |  | COc1cccc(-c2cccc(CNCC[C@H]3CN(c4ccc5c(n4)NC(=O)CO5)C(=O)O3)c2O)n1 [Example 93, 6-((S)-5-{2-[2-hydroxy-3-(6-methoxy-pyridin-2-yl)-benzylamino]-ethyl}-2-oxo-oxazolidin-3-yl)-4H-pyrido[3,2-b][1,4]oxazin-3-one]
≤ 0.016 | 0.031 (≈ 0.0617 µM) | 0.125 (≈ 0.249 µM) | ≤ 0.016 | ≤ 0.016 |  |  |  |  |  | N#Cc1cccc(-c2cccc(CNCC[C@H]3CN(c4ccc5c(n4)NC(=O)CS5)C(=O)O3)c2O)n1 [Example 94, 6-[2-hydroxy-3-({2-[(S)-2-oxo-3-(3-oxo-3,4-dihydro-2H-pyrido[3,2-b][1,4]thiazin-6-yl)-oxazolidin-5-yl]-ethylamino}-methyl)-phenyl]-pyridine-2-carbonitrile]
 |  |  |  |  | ≦0.016 mg/L | 0.063 | 0.125 | ≦0.016 mg/L | ≦0.016 mg/L | COc1cccc(-c2cccc(CNCC[C@H]3CN(c4ccc5c(n4)NC(=O)CS5)C(=O)O3)c2O)n1 [Example 95, 6-((S)-5-{2-[2-hydroxy-3-(6-methoxy-pyridin-2-yl)-benzylamino]-ethy}-2-oxo-oxazolidin-3-yl)-4H-pyrido[3,2-b][1,4]thiazin-3-one]
≤ 0.016 | 0.125 (≈ 0.258 µM) | 1 (≈ 2.06 µM) | 0.031 (≈ 0.064 µM) | 0.031 (≈ 0.064 µM) |  |  |  |  |  | N#Cc1cccc(-c2cccc(CNCCc3cn(-c4ccc5c(n4)NC(=O)CO5)c(=O)o3)c2O)n1 [Example 96, 6-[2-hydroxy-3-({2-[2-oxo-3-(3-oxo-3,4-dihydro-2H-pyrido[3,2-b][1,4]oxazin-6-yl)-2,3-dihydro-oxazol-5-yl]-ethylamino}-methyl)-phenyl]-pyridine-2-carbonitrile]
0.031 (≈ 0.0651 µM) | 0.25 (≈ 0.525 µM) | 8 (≈ 16.8 µM) | 0.25 (≈ 0.525 µM) | 0.25 (≈ 0.525 µM) |  |  |  |  |  | COc1cnnc(-c2cccc(CNCC[C@@H]3CN(c4ccc5c(n4)NC(=O)CO5)C(=O)O3)c2)c1 [Example 97, 6-((R)-5-{2-[3-(5-methoxy-pyridazin-3-yl)-benzylamino]-ethyl}-2-oxo-oxazolidin-3-yl)-4H-pyrido[3,2-b][1,4]oxazin-3-one]
0.031 (≈ 0.0629 µM) | 0.25 (≈ 0.508 µM) | 4 (≈ 8.12 µM) | 0.125 (≈ 0.254 µM) | 0.25 (≈ 0.508 µM) |  |  |  |  |  | COc1cnnc(-c2cccc(CNCC[C@@H]3CN(c4ccc5c(n4)NC(=O)CS5)C(=O)O3)c2)c1 [Example 98, 6-((R)-5-{2-[3-(5-methoxy-pyridazin-3-yl)-benzylamino]-ethyl}-2-oxo-oxazolidin-3-yl)-4H-pyrido[3,2-b][1,4]thiazin-3-one]
≤ 0.016 | 0.125 (≈ 0.254 µM) | 2 (≈ 4.06 µM) | 0.031 (≈ 0.0629 µM) | 0.031 (≈ 0.0629 µM) |  |  |  |  |  | COc1cnnc(-c2cccc(CNCC[C@H]3CN(c4ccc5c(n4)NC(=O)CS5)C(=O)O3)c2)c1 [Example 99, 6-((S)-5-{2-[3-(5-methoxy-pyridazin-3-yl)-benzylamino]-ethyl}-2-oxo-oxazolidin-3-yl)-4H-pyrido[3,2-b][1,4]thiazin-3-one]
≤ 0.016 | 0.125 (≈ 0.257 µM) | 0.5 (≈ 1.03 µM) | ≤ 0.016 | ≤ 0.016 |  |  |  |  |  | N#Cc1cccc(-c2cccc(CNCC[C@H]3CN(c4ccc5c(n4)NC(=O)CS5)C(=O)O3)c2)c1 [Example 100, 3′-({2-[(S)-2-oxo-3-(3-oxo-3,4-dihydro-2H-pyrido[3,2-b][1,4]thiazin-6-yl)-oxazolidin-5-yl]-ethylamino}-methyl)-biphenyl-3-carbonitrile]
≤ 0.016 | 0.125 (≈ 0.254 µM) | 2 (≈ 4.07 µM) | ≤ 0.016 | ≤ 0.016 |  |  |  |  |  | COc1ccnc(-c2cc(CNCC[C@H]3CN(c4ccc5c(n4)NC(=O)CO5)C(=O)O3)ccc2O)c1 [Example 101, 6-((S)-5-{2-[4-hydroxy-3-(4-methoxy-pyridin-2-yl)-benzylamino]-ethyl}-2-oxo-oxazolidin-3-yl)-4H-pyrido[3,2-b][1,4]oxazin-3-one]
0.063 (≈ 0.132 µM) | 1 (≈ 2.1 µM) | 4 (≈ 8.39 µM) | 1 (≈ 2.1 µM) | 0.25 (≈ 0.525 µM) |  |  |  |  |  | COc1cccc(-c2nccc(CNCC[C@H]3CN(c4ccc5c(n4)NC(=O)CO5)C(=O)O3)n2)c1 [Example 102, 6-[(S)-5-(2-{[2-(3-methoxy-phenyl)-pyrimidin-4-ylmethyl]-amino}-ethyl)-2-oxo-oxazolidin-3-yl]-4H-pyrido[3,2-b][1,4]oxazin-3-one]
0.063 (≈ 0.132 µM) | 0.5 (≈ 1.05 µM) | 2 (≈ 4.2 µM) | 1 (≈ 2.1 µM) | 0.25 (≈ 0.525 µM) |  |  |  |  |  | COc1cccc(-c2cnnc(CNCC[C@H]3CN(c4ccc5c(n4)NC(=O)CO5)C(=O)O3)c2)c1 [Example 103, 6-[(S)-5-(2-{[5-(3-methoxy-phenyl)-pyridazin-3-ylmethyl]-amino}-ethyl)-2-oxo-oxazolidin-3-yl]-4H-pyrido[3,2-b][1,4]oxazin-3-one]
0.031 (≈ 0.0651 µM) | 0.5 (≈ 1.05 µM) | 2 (≈ 4.2 µM) | 0.25 (≈ 0.525 µM) | 0.25 (≈ 0.525 µM) |  |  |  |  |  | COc1cccc(-c2cncc(CNCC[C@H]3CN(c4ccc5c(n4)NC(=O)CO5)C(=O)O3)n2)c1 [Example 104, 6-[(S)-5-(2-{[6-(3-methoxy-phenyl)-pyrazin-2-ylmethyl]-amino}-ethyl)-2-oxo-oxazolidin-3-yl]-4H-pyrido[3,2-b][1,4]oxazin-3-one]
0.25 (≈ 0.525 µM) | 4 (≈ 8.39 µM) | > 8 | 8 (≈ 16.8 µM) | 4 (≈ 8.39 µM) |  |  |  |  |  | COc1cccc(-c2cc(CNCC[C@H]3CN(c4ccc5c(n4)NC(=O)CO5)C(=O)O3)cnn2)c1 [Example 105, 6-[(S)-5-(2-{[6-(3-methoxy-phenyl)-pyridazin-4-ylmethyl]-amino}-ethyl)-2-oxo-oxazolidin-3-yl]-4H-pyrido[3,2-b][1,4]oxazin-3-one]
≤ 0.016 | 1 (≈ 2.03 µM) | 2 (≈ 4.07 µM) | 0.125 (≈ 0.254 µM) | 0.125 (≈ 0.254 µM) |  |  |  |  |  | COc1ccnc(-c2cccc(CNCC[C@H]3CN(c4ccc5c(n4)NC(=O)CO5)C(=O)O3)c2O)c1 [Example 106, 6-((S)-5-{2-[2-hydroxy-3-(4-methoxy-pyridin-2-yl)-benzylamino]-ethyl}-2-oxo-oxazolidin-3-yl)-4H-pyrido[3,2-b][1,4]oxazin-3-one]
0.063 (≈ 0.133 µM) | 2 (≈ 4.22 µM) | 8 (≈ 16.9 µM) | 8 (≈ 16.9 µM) | 4 (≈ 8.45 µM) |  |  |  |  |  | COc1cccc(-c2cccc(CNCCc3nn(-c4ccc5c(n4)NC(=O)CO5)c(=O)o3)c2)c1 [Example 107, 6-(5-{2-[(3′-methoxy-biphenyl-3-ylmethyl)-amino]-ethyl}-2-oxo-[1,3,4]oxadiazol-3-yl)-4H-pyrido[3,2-b][1,4]oxazin-3-one]
